How the values were obtained:
[1] = test system: fibroblast monolayers; assay: Influx/uptake of ^3 H-FC (free cholesterol) from labeled LDL (or plasma, HDL) into normal fibroblast monolayers; type: cell-based, human
[2] = test system: human hepatoblastoma (HepG2) cells; details: Lange 1994; cited from earlier work
[3] = test system: fibroblast ACAT; details: 30 μM; Goldstein et al. 1978; cited from earlier work
[4] = test system: hepatocytes; details: 30 μM; Lange 1994; cited from earlier work

CC(=O)[C@H]1CC[C@H]2[C@@H]3CCC4=CC(=O)CC[C@]4(C)[C@H]3CC[C@]12C [Progesterone]
LDL-FC influx (discussion, words) [1]: without effect | inhibition of LDL-FC pathway (summary, words) [1]: not inhibited | FC Influx ([1]; LDL-FC 60.2 μg ml^-1, 60 min, 37° C., 30 min preequilibration with inhibitor at: Na-azide 1 mM, NH4-vanadate 1 mM, NEM 2 mM, KNO3 50 mM, progesterone 30 μM, forskolin 30 μM, IBMX 100 μM, chloroquine 20 μM): 1.28 ± 0.06 µg | effect on LDL FC uptake ([1]; Table 3 conditions): no effect | FC Influx, % (PBS only = 100.0) ([1]; same concentrations and conditions as Table 3 FC influx, 60 min): 97.3% | transfer of FC from plasma membrane to cell interior [2]: promoted the transfer of FC | inhibition of fibroblast ACAT activity [3]: maximally inhibit | inhibition of cholesterol transport in hepatocytes [4]: inhibit
